Data: PMC10698238 (Planta medica, 2023)
Entries after “also recorded” stand apart in the source; their conditions may differ. Read-outs that look alike come from different tables or passages of the source. Marks after values point to notes of the source that are not given here.

What was measured:
Phyllosticta citricarpa [1] = assay: Inhibition of Phyllosticta citricarpa pycnidia development in citrus leaves; format: cell-based; conditions: 21 days; for Decrease of the number of pycnidia produced by P. citricarpa in citrus leaves: 10 mg/mL
Phyllosticta citricarpa [2] = assay: Inhibition of citrus black spot development in detached citrus fruits; format: in vivo; conditions: 21 days; for Inhibition of CBS symptoms in citrus fruits: 10 mg/mL
[3] = system: PC3 (prostate cancer) cell line; assay: Cytotoxicity assay; conditions: read-out: IC50 PC3
[4] = system: A549 (non-small cell lung cancer) cell line; assay: Cytotoxicity assay; conditions: read-out: IC50 A549
HCT-116 = conditions: cited from earlier work
Phyllosticta citricarpa [5] = assay: Mycelial growth inhibition assay in petri dishes; format: cell-based; conditions: 21 days; for Inhibition of mycelial growth of P. citricarpa: petri dishes, 10 mg/mL
[6] = detached C. sinensis fruits, 10 μL of 10 mg/mL solution in methanol

Compound	Decrease of the number of pycnidia produced by P. citricarpa in citrus leaves (Phyllosticta citricarpa [1])	Development of citrus black spot (CBS) symptoms (Phyllosticta citricarpa [2]; [6])	IC50 ([3]; Homo sapiens, 72 h)	IC50 ([4]; Homo sapiens, A549, 72 h)	IC50 ([3]; 72 h incubation)	IC50 ([4]; 72 h incubation)	further results
CCCCCCCc1cc(=O)c2c(CC(=O)OC)cc(O)cc2o1 [compound 9, 5-carbomethoxymethyl-2-heptyl-7-hydroxychromone]	no activity	+	> 80 µM	> 80 µM			
COc1cc2c(cc1OC)[C@]1(O)C(=O)c3ccc4c(c3O[C@@H]1CO2)C=CC(C)(C)O4 [tephrosin]							Activity against colorectal cancer cell line HCT-116 (HCT-116): showed activity
COC(=O)Nc1nc2ccccc2[nH]1 [Carbendazim, carbendazim, reference compound]							Growth [in cm mean (± SD)] of Phyllosticta citricarpa in petri dishes (Phyllosticta citricarpa [5]; positive control, carbendazim 1.0 mg/mL): 0 ^* cm; Number of pycnidia produced in leaves by P. citricarpa (Phyllosticta citricarpa [1]; positive control): 0; Development of citrus black spot (CBS) symptoms (Phyllosticta citricarpa [2]; positive control, 50 μg carbendazim, detached fruits): −
paecilin R [compound 2]	35.5%	+			> 80 µM	> 80 µM	
C=C1[C@@H](C)[C@H]2[C@H](Cc3ccccc3)NC(=O)[C@]23[C@H](O)/C=C/[C@](C)(O)C[C@@H](C)C/C=C/[C@H]3[C@@H]1O [compound 7, cytochalasin J]	less than 14%	+			> 80 µM	> 80 µM	
paecilin Q [compound 1]	50.5%	+			> 80 µM	> 80 µM	Inhibition of mycelial growth of P. citricarpa (Phyllosticta citricarpa [5]): 48.6%
Cc1occc(=O)c1O [compound 10, maltol]	less than 14%	+	> 80 µM	> 80 µM			
Cc1cc(O)c2c(=O)c3c(C(=O)O)cccc3oc2c1 [8a, 8-hydroxy-6-methyl-9-oxo-9H-xanthene-1-carboxylic acid]	less than 14%						
CC(=O)OC[C@]12Oc3ccc(-c4ccc(O)c5c4O[C@@]4(COC(C)=O)C(=C(O)C[C@@H](C)[C@H]4OC(C)=O)C5=O)c(O)c3C(=O)C1=C(O)C[C@@H](C)[C@H]2OC(C)=O [compound 4, phomoxanthone B]	63.1%	+	7.39 ± 0.62 µM	10.4 ± 0.59 µM			
C=C1[C@@H](C)[C@H]2[C@H](Cc3ccccc3)NC(=O)[C@]23[C@H](OC(C)=O)/C=C/[C@](C)(O)C[C@@H](C)C/C=C/[C@H]3[C@@H]1O [compound 6, cytochalasin H]	78.3%	−			> 50 µM	> 50 µM	Inhibition of mycelial growth of P. citricarpa (Phyllosticta citricarpa [5]): 80%; Inhibition of CBS symptoms in citrus fruits (Phyllosticta citricarpa [2]; detached fruits): inhibited the development of citrus black spot symptoms; also recorded: completely inhibited CBS symptoms; also recorded: suppressed the hyphal growth and development of CBS lesions
CC(=O)OC[C@]12Oc3ccc(-c4ccc5c(c4O)C(=O)C4=C(O)C[C@@H](C)[C@@H](OC(C)=O)[C@@]4(COC(C)=O)O5)c(O)c3C(=O)C1=C(O)C[C@@H](C)[C@H]2OC(C)=O [compound 5, dicerandrol C]	less than 14%	+	2.23 ± 0.13 µM	2.92 ± 0.24 µM			
CC(=O)OC[C@]12Oc3c(-c4ccc(O)c5c4O[C@@]4(COC(C)=O)C(=C(O)C[C@@H](C)[C@H]4OC(C)=O)C5=O)ccc(O)c3C(=O)C1=C(O)C[C@@H](C)[C@H]2OC(C)=O [compound 3, phomoxanthone A]	70.2%	−	3.18 ± 0.02 µM	4.95 ± 0.53 µM			Inhibition of CBS symptoms in citrus fruits (Phyllosticta citricarpa [2]; detached fruits): inhibited the development of citrus black spot symptoms; also recorded: completely inhibited CBS symptoms; also recorded: suppressed the hyphal growth and development of CBS lesions
Cc1cc(C(=O)O)c2c(=O)c3c(O)cccc3oc2c1 [8b, 8-hydroxy-3-methyl-9-oxo-9H-xanthene-1-carboxylic acid]	less than 14%						
